Results taken from ChEMBL document CHEMBL1148805 (J Med Chem, 2007).
Active and inactive are the calls of the source. The rule behind the calls is not given here.

Assays:
[1] = system: Brain; assay: tissue or blood; details: Rattus norvegicus, Sprague-Dawley Albino
[2] = molecular target: Aldo-keto reductase family 1 member A1 (Rattus norvegicus, UniProt P51635)
Description: Inhibition of ALR1 in Sprague-Dawley Albino rat kidney

[3] = molecular target: Aldo-keto reductase family 1 member B1 (Rattus norvegicus, UniProt P07943)
Description: Inhibition of ALR2 in Sprague-Dawley Albino rat lens

[4] = system: Brain; assay: tissue or blood; details: Rattus norvegicus, Sprague-Dawley Albino; remark: listed apart in the source
[5] = physchem
Description: Acid dissociation constant, pKa of the compound

[6] = system: Brain; details: Rattus norvegicus, Sprague-Dawley Albino, 10 uM

Aldo-keto reductase family 1 member A1, sequence (P51635 whole entry, looked up): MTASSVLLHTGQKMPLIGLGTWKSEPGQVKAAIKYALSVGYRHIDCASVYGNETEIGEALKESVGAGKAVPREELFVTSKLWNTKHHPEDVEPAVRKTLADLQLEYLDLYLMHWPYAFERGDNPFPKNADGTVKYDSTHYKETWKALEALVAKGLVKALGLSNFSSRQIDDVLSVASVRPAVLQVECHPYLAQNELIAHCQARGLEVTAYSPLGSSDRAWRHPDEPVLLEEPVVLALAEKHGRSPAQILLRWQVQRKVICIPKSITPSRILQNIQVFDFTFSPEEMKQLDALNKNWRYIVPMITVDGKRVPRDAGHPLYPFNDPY

| Structure (SMILES) | inhibition at 10 µM [1] [%] | IC50 [2] [µM] | IC50 [3] [µM] | inhibition at 100 µM [4] [%] | pKa [5] | Activity [6] |
| --- | --- | --- | --- | --- | --- | --- |
| COc1ccc(-c2cc(=O)n3cccc(O)c3n2)cc1 | 3.4 | > 10 | > 10 | 11.5 |  |  |
| O=c1cc(-c2ccc(O)cc2)nc2cccc(O)n12 | 21.2 | > 10 | 0.42 | 42.4 |  |  |
| O=c1cc(Cc2ccccc2)nc2cccc(O)n12 | 19.3 | > 10 | 55 | 45.7 |  |  |
| O=c1cc(-c2ccccc2)nc2ccccn12 | 10.8 | > 10 | > 10 | 22.4 |  |  |
| O=c1cc(Cc2ccc(O)cc2)nc2cccc(O)n12 | 11.5 | > 10 | 44 | 51.4 |  |  |
| COc1ccc(-c2cc(=O)n3c(O)cccc3n2)cc1 | 50.4 | > 10 | 0.74 | 82.8 |  |  |
| CC(=O)N(O)CCCCCNC(=O)CCC(=O)N(O)CCCCCNC(=O)CCC(=O)N(O)CCCCCN [DEFEROXAMINE] |  |  |  | 72 |  |  |
| O=c1cc(-c2ccc(O)c(O)c2)nc2ccccn12 | 26.6 | > 10 | 0.67 | 71.6 | 6.8 |  |
| COc1ccc(Cc2cc(=O)n3c(O)cccc3n2)cc1OC | 25.8 | > 10 | > 10 | 45.1 |  |  |
| O=c1cc(-c2ccc(O)cc2)nc2c(O)cccn12 | 11.8 | > 10 | 2.07 | 43.2 |  |  |
| O=c1cc(-c2ccc(O)c(O)c2)nc2cccc(O)n12 | 66.5 | > 10 | 0.1 | 85.9 |  |  |
| COc1ccc(-c2cc(=O)n3cccc(O)c3n2)cc1OC | 1.2 | > 10 | > 10 | 8.8 |  |  |
| O=c1cc(-c2ccc(O)c(O)c2)nc2c(O)cccn12 | 48.2 | > 10 | 0.45 | 81.5 |  |  |
| O=c1cc(-c2ccc(O)cc2)nc2ccccn12 |  | > 10 | 4.56 | 23.7 | 7.6 | inactive |
| COc1ccc(-c2cc(=O)n3ccccc3n2)cc1OC |  | > 10 | > 10 | 18.8 |  | inactive |
| COc1ccc(-c2cc(=O)n3ccccc3n2)cc1 | 8.3 | > 10 | > 10 | 15.1 |  |  |
| O=c1cc(-c2ccccc2)nc2c(O)cccn12 | 5.9 | > 10 | > 10 | 11.9 | 10.2 |  |
| COc1ccc(-c2cc(=O)n3c(O)cccc3n2)cc1OC | 28.5 | > 10 | 100 | 64.7 |  |  |
| Cc1c(C)c2c(c(C)c1O)CC[C@@](C)(CCCC(C)CCCC(C)CCCC(C)C)O2 (single isomer, unassigned) [ALPHA-TOCOPHEROL] |  |  |  | 18.2 |  |  |
| COc1ccc(Cc2cc(=O)n3c(O)cccc3n2)cc1 | 18.9 | > 10 | > 10 | 42.4 |  |  |
| O=c1cc(Cc2ccc(O)c(O)c2)nc2cccc(O)n12 | 56.7 | > 10 | 12 | 89.9 |  |  |
